Assay results reported in US20240400546A1, “COMPOUNDS AND USES THEREOF” (JANSSEN PHARMACEUTICA NV, priority 2016, published 2024).
pIC50: −log10 of the molar value.

These compounds were tested against T1, SCD1 (Homo sapiens, UniProt O00767) (assay: Growth inhibition of humanized yeast expressing SCD1 as sole desaturase). Conditions: humanized yeast expressing SCD1.
T1 construct: host or cells: S. cerevisiae ole1Δ strain, plasmid pRS316 with TDH3 promoter and CYC1 terminator
T1 sequence (O00767 1-359): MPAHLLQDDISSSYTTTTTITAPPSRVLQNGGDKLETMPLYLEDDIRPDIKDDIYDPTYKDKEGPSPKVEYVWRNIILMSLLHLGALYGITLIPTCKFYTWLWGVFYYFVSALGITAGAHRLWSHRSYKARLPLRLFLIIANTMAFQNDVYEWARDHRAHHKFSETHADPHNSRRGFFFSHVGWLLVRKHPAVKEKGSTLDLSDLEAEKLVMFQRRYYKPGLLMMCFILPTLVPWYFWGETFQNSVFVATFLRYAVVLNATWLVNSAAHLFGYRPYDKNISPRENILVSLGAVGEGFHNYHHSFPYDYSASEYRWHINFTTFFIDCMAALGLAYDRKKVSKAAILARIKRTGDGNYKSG
Format: cell-based
Experimental: Strain ole1Δ (yeast ole1 deletion mutant) was constructed by deleting OLE1 with NAT-MX6 in BY4741, amplifying the deletion cassette from the genomic DNA of the resulting strain with primers flanking the ORF by 1000 bp upstream and downstream, transforming the resulting deletion cassette into W303 pdr1Δ pdr3Δ, and plating transformants on YPD media containing G418 (200 μg/mL) and nourseothricin (100 μg/mL) with 0.01% TWEEN®-20 and 0.5 mM oleic and palmitoleic acids.
The coding sequence of yeast OLE1 was also cloned into this plasmid). These clones were then transformed into the ole1Δ strain and plated on CSM-Ura media (CSM lacking uracil) with 2% glucose (w/v) and independent colonies were isolated and amplified.
All compound profiling experiments were performed using the same basic protocol. Different genetic backgrounds (e.g., gene deletions) or conditions (e.g., addition of oleic and palmitoleic acid) were replaced as indicated below.
Yeast were cultured using standard techniques in complete synthetic media (CSM) and yeast nitrogen base supplemented with 2% (w/v) carbon source (glucose, raffinose, or galactose) to regulate the expression of the toxic disease protein. An initial starter culture was inoculated in 3 mL CSM-Glucose media and incubated overnight in a 30° C. shaker incubator (225 rpm). Saturated morning cultures were then diluted 1:20 in fresh CSM-Raffinose media and grown for 6 h to an OD600 (optical density) of ˜0.4-0.8 at 30° C. with shaking.
Compound administration was performed in two separate steps. First, 15 μL of CSM-Galactose (induces expression of toxic protein) was dispensed into clear 384 well assay plates using a MULTIDROP™ Combi reagent dispenser. […] The cultures described above were then diluted to a 2× concentration (0.03 and 0.08 for alpha-synuclein and ApoE, final OD600 of 0.015 and 0.04) in CSM-Galactose. For wild-type and Ole1/SCD1/SCD5 plasmid-containing strains, the 2× cell density was 0.02. […] For 96-well assays (FIGS. 1A and 1B), compound dilutions in DMSO were generated in 96 well plates and 1 μL was manually pipetted into 96 well clear bottom assay plates.
For experiments using a plasmid-borne copy of Ole1, SCD1, or SCD5 (FIGS. 3B, 6, and 7), media lacking uracil (SX-Ura, where X is glucose, raffinose, or galactose), was used for all steps of the compound profiling protocol to ensure its maintenance throughout the assay.
After yeast delivery, assay plates were incubated under humidified conditions at 30° C. for 24 to 40 h. ApoE4 rescue experiments were stopped at 24 h, aSyn experiments at 40 h, Ole1 at 24 h, and SCD1/SCD5 at 40 h. The growth of yeast was monitored by reading the OD600 of each well using a microplate reader (Perkin Elmer EnVision™).

Structure (SMILES)	pIC50
Cc1ccc(-c2nc(C3CCN(C(=O)C4CC(=O)N(c5ccc(C)c(C)c5)C4)CC3)no2)cc1 (stereo not shown) [Compound 50]	4.39
Cn1c(=O)n(C)c2cc(-c3noc(C4CCN(C(=O)[C@@H](CO)NC(=O)c5ccccc5)CC4)n3)ccc21 [Compound 214]	4.39
CC(C)n1ncc2cc(-c3noc(C4CCN(C(=O)CNC(=O)c5ccccc5)CC4)n3)ccc21 [Compound 228]	4.39

Same assay, conditions: humanized yeast expressing human SCD1

Structure (SMILES)	pIC50
Cc1nn(C)c2cc(-c3noc(N4CCN(C(=O)[C@H]5CC(=O)N(c6ccccc6)C5)CC4)n3)cnc12 [Compound 246]	< 4.35
N#Cc1ccc(-c2noc(C3CCN(C(=O)[C@H]4CC(=O)N(c5ccccc5)C4)CC3)n2)s1 [Compound 247]	< 4.35
O=C([C@H]1CC(=O)N(c2ccccc2)C1)N1CCC(c2nc(-c3ccc(Br)s3)no2)CC1 [Compound 248]	< 4.35
COc1cc(-c2noc(C3CCN(C(=O)CNC(=O)c4ccccc4)CC3)n2)ccc1OC1CC1 [Compound 249]	< 4.35
Cc1nn(C)c2cc(-c3nsc(C4CCN(C(=O)CNC(=O)c5ccccc5)CC4)n3)ccc12 [Compound 250]	< 4.35
CNC(=O)c1ccc(-c2noc(C3CCN(C(=O)[C@H]4CC(=O)N(c5ccccc5)C4)CC3)n2)cn1 [Compound 252]	< 4.35
COc1cc(-c2noc(C3CCN(C(=O)CNC(=O)c4ccccc4)CC3)n2)ccc1OC(F)(F)F [Compound 253]	< 4.35
Cn1c(=O)n(C)c2cc(-c3noc(C4CCN(C(=O)[C@H]5CC(=O)N(c6ccccn6)C5)CC4)n3)ccc21 [Compound 256]	< 4.35
Cc1nn(C)c2cc(-c3noc(N4CCN(C(=O)c5ccccc5)CC4)n3)ccc12 [Compound 261]	< 4.35
Cc1nn(C)c2cc(-c3noc(N4CCN(C(=O)c5ccccc5Cl)CC4)n3)ccc12 [Compound 262]	< 4.35
Cc1nn(C)c2cc(-c3noc(C4CCN(C(=O)CC(C)(C)C)CC4)n3)ccc12 [Compound 263]	< 4.35
Cc1nn(C)c2cc(-c3noc(C4CCN(C(=O)COc5ccccc5)CC4)n3)ccc12 [Compound 266]	< 4.35
Cc1nn(C)c2cc(-c3noc(C4CCN(C(=O)CNC(=O)c5ccc(Cl)cc5)CC4)n3)ccc12 [Compound 269]	< 4.35
Cc1nn(C)c2cc(-c3noc(N4CCN(C(=O)c5cccc(F)c5)CC4)n3)ccc12 [Compound 270]	< 4.35
Cc1nn(C)c2cc(-c3noc(C4CCN(C(=O)CNC(=O)c5ccccc5C(F)(F)F)CC4)n3)ccc12 [Compound 271]	< 4.35
Cc1nn(C)c2cc(-c3noc(C4CCN(C(=O)Oc5ccccc5)CC4)n3)ccc12 [Compound 272]	< 4.35
COC(=O)N1CCC(c2nc(-c3ccc4c(C)nn(C)c4c3)no2)CC1 [Compound 273]	< 4.35
COc1ccc(-c2noc(C3CCN(C(=O)CNC(=O)c4ccccc4)CC3)n2)cc1OC(C)C [Compound 274]	< 4.35
CC(C)n1cc2ccc(-c3noc(C4CCN(C(=O)OC(C)(C)C)CC4)n3)cc2n1 [Compound 277]	< 4.35
Cc1nn(C)c2cc(-c3noc(N4CCN(C(=O)c5cc(F)ccc5Cl)CC4)n3)ccc12 [Compound 278]	< 4.35
Cc1nn(C)c2cc(-c3noc(C4CCN(S(=O)(=O)C(C)C)CC4)n3)ccc12 [Compound 279]	< 4.35
Cc1nn(C)c2cc(-c3noc(C4CCN(C(=O)c5ccccc5)CC4)n3)ccc12 [Compound 280]	< 4.35
Cc1nn(C)c2cc(-c3noc(C4CCN(C(=O)NC(C)(C)C)CC4)n3)ccc12 [Compound 282]	< 4.35
Cc1nn(C)c2cc(-c3noc(C4CCN(C(=O)c5cccc(F)c5)CC4)n3)ccc12 [Compound 284]	< 4.35
CC(C)c1ccc(C(=O)N2CCC(c3nc(C(=O)Nc4cnn(C)c4)no3)CC2)cc1 [Compound 285]	< 4.35
Cc1nn(C2CC2)c2cc(-c3noc(C4CCN(C(=O)CNC(=O)c5ccccc5)CC4)n3)ccc12 [Compound 286]	< 4.35
CC(C)c1ccc(C(=O)N2CCC(c3nc(C(=O)Nc4ccnn4C)no3)CC2)cc1 [Compound 287]	< 4.35
Cc1nn(C)c2cc(-c3noc(C4CCN(C(=O)c5ccccc5Cl)CC4)n3)ccc12 [Compound 288]	< 4.35

Structure (SMILES)	pIC50
Cc1c2ccc(-c3noc(C4CCN(C(=O)CNC(=O)c5ccccc5)CC4)n3)cc2nn1C(C)C [Compound 289]	< 4.35
Cc1nn(C)c2cc(-c3noc(C4CCN(C(=O)c5ccc(C(C)C)cc5)CC4)n3)ccc12 [Compound 290]	< 4.35
Cc1nn(C)c2cc(-c3noc(C4CCN(C(=O)c5ccc(Cl)cc5)CC4)n3)ccc12 [Compound 291]	< 4.35
Cc1nn(C)c2cc(-c3noc(C4CCN(C(=O)c5cc(F)ccc5C(F)(F)F)CC4)n3)ccc12 [Compound 292]	< 4.35
Cc1nn(C)c2cc(-c3noc(N4CCN(C(=O)c5ccccc5C(F)(F)F)CC4)n3)ccc12 [Compound 295]	< 4.35
Cc1nn(C)c2ccc(-c3noc(C4CCN(C(=O)c5ccc(C(C)C)cc5)CC4)n3)cc12 [Compound 297]	< 4.35
CCn1nc(C)c2ccc(-c3noc(C4CCN(C(=O)OC(C)(C)C)CC4)n3)cc21 [Compound 301]	< 4.35
Cc1nn(C)c2cc(-c3noc(C4CCN(C(=O)CNC(=O)c5cc(F)ccc5C(F)(F)F)CC4)n3)ccc12 [Compound 304]	< 4.35
CCc1nn(C)c2cc(-c3noc(C4CCN(C(=O)CNC(=O)c5ccccc5)CC4)n3)ccc12 [Compound 309]	< 4.35
CCN1C(=O)CN(C)c2cc(-c3noc(C4CCN(C(=O)CNC(=O)c5ccccc5)CC4)n3)ccc21 [Compound 310]	< 4.35
Cc1nn(C)c2cc(-c3noc(C4CCN(C(=O)N5CCOCC5)CC4)n3)ccc12 [Compound 311]	< 4.35
Cc1nn(C)c2cc(-c3noc(C4CCN(C(=O)CNC(=O)c5ccc(C(F)(F)F)cc5)CC4)n3)ccc12 [Compound 317]	< 4.35
CCn1nc2cc(-c3noc(C4CCN(C(=O)CNC(=O)c5ccccc5)CC4)n3)ccc2c1C [Compound 320]	< 4.35
CCc1c2ccc(-c3noc(C4CCN(C(=O)CNC(=O)c5ccccc5)CC4)n3)cc2nn1C [Compound 321]	< 4.35
Cc1nn(C)c2cc(-c3nc(C4CCN(C(=O)CNC(=O)c5ccccc5)CC4)no3)ccc12 [Compound 326]	< 4.35
Cc1nn(C)c2cc(-c3noc(N4CCN(C(=O)N5CCCCC5)CC4)n3)ccc12 [Compound 327]	< 4.35
Cc1nn(C)c2cc(-c3noc(C4CCN(C(=O)CNC(=O)c5cc(Cl)ccc5C(F)(F)F)CC4)n3)ccc12 [Compound 328]	< 4.35
Cc1nn(C)c2cc(-c3noc(C4CCN(C(=O)N[C@@H]5C[C@@H]5c5ccccc5)CC4)n3)ccc12 [Compound 329]	< 4.35
O=C(c1ccccc1)N1CCC(c2nc(N3CC4(COC4)C3)no2)CC1 [Compound 334]	< 4.35
O=C(c1ccccc1)N1CCC(c2nc(N3CC4(CCCO4)C3)no2)CC1 [Compound 335]	< 4.35
CC(C)c1ccc(C(=O)N2CCC(c3nc(N4CC5(CCCO5)C4)no3)CC2)cc1 [Compound 336]	< 4.35
CC(C)c1ccc(C(=O)N2CCC(c3nc(N4CC5(COC5)C4)no3)CC2)cc1 [Compound 337]	< 4.35
Cc1nn(C(C)C)c2cc(-c3noc(C4CCN(C(=O)OC(C)(C)C)CC4)n3)ccc12 [Compound 343]	< 4.35
COC(=O)N1CCC(c2nc(-c3ccc4cnn(C(C)C)c4c3)no2)CC1 [Compound 355]	< 4.35
COC(=O)N1CCN(c2nc(-c3ccc4cnn(C(C)C)c4c3)no2)CC1 [Compound 356]	< 4.35
CC(C)OC(=O)N1CCC(c2nc(-c3ccc4cnn(C(C)C)c4c3)no2)CC1 [Compound 357]	< 4.35
CC(C)n1ncc2ccc(-c3noc(C4CCN(C(=O)COc5ccccc5)CC4)n3)cc21 [Compound 358]	< 4.35
